Results taken from patent US11331364B2, “Use for JNK inhibitor molecules for treatment of various diseases” (Xigen Inflammation Ltd., priority 2014, dated 2022).
Where two headings read alike, the source gives them in different places. Square brackets hold non-standard residues; d marks the D form. Peptide text beside a SMILES is read from it.

Tests used:
[1] = target: T1, hJNK1 (Homo sapiens, UniProt P45983); assay: hJNK1 | IC50; settings: read-out: hJNK1 | IC50
T1 construct: His; purchased Upstate 14-327
T1 sequence (P45983 whole entry, looked up): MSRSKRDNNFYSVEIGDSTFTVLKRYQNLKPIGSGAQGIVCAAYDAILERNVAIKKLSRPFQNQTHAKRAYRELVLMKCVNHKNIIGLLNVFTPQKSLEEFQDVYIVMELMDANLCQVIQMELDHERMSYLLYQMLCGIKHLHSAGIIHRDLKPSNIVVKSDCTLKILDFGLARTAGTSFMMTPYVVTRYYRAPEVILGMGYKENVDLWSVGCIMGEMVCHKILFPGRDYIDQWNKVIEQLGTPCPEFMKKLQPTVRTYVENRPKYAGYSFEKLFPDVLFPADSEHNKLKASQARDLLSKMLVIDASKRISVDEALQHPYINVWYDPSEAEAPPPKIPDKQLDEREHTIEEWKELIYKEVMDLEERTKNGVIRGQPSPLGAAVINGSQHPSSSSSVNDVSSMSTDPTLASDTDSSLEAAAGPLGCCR
Text: (§1) Table printed on a drawing sheet, Fig. 4
Head of the field: hJNK1 | IC50
(§2) The patent's description of the figure: FIG. 4: Table illustrating the inhibitory efficacy of several JNK inhibitors according to the present invention, which are fusion proteins of a JNK inhibitory (poly-)peptide sequence and a transporter sequence. Given are the IC50 values in the nM range, the respective standard error of the mean (SEM) and the number of experiments performed (n).
(§3) First copying reader's note: The sheet prints no unit for IC50 (the description says nM range); decimal commas are used, except for three IC50 cells printed with a point (3820.81, 5340.33, 8130.86).
Where the first naming reader finds the target: head: hJNK1 | IC50

[2] = target: hJNK2 (Homo sapiens, UniProt P45984); assay: hJNK2 | IC50
Sequence of hJNK2 (P45984 whole entry, looked up): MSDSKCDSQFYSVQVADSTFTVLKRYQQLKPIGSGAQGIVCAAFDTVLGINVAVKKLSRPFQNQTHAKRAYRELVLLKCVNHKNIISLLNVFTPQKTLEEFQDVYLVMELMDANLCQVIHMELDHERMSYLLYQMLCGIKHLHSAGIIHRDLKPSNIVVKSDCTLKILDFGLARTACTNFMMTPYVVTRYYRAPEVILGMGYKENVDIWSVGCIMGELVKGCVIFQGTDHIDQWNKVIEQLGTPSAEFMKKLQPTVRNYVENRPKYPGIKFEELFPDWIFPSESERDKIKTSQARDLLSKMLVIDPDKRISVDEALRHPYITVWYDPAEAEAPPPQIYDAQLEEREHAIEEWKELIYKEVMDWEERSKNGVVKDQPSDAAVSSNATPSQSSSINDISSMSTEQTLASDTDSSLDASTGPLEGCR
Text: as §1
Head of the field: hJNK2 | IC50
as §2, §3
Where the first naming reader finds the target: head: hJNK2 | IC50

[3] = target: hJNK3 (Homo sapiens, UniProt P53779); assay: hJNK3 | IC50; settings: read-out: hJNK3 | IC50
Sequence of hJNK3 (P53779 whole entry, looked up): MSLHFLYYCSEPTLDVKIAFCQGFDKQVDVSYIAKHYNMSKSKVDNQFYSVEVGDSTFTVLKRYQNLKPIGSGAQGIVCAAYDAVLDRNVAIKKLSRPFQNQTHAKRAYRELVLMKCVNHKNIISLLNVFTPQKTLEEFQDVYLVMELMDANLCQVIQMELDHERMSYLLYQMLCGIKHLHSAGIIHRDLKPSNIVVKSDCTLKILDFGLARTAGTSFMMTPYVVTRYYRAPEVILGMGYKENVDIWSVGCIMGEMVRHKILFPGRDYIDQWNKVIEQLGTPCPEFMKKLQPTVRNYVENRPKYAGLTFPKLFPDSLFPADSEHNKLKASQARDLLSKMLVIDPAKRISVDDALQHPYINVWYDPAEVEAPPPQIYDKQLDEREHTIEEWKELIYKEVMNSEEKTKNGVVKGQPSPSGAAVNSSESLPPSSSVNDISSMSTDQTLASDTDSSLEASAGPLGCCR
Text: as §1
Head of the field: hJNK3 | IC50
as §2, §3
Where the first naming reader finds the target: head: hJNK3 | IC50

SMILES	IC50 [1] [nM]	IC50 ([2]; read-out: hJNK2 | IC50) [nM]	IC50 [3] [nM]	IC50 [2] [nM]
CC(C)C[C@H](NC(=O)[C@H](CC(N)=O)NC(=O)[C@H](CC(C)C)NC(=O)[C@@H](NC(=O)[C@@H](NC(=O)[C@@H]1CCCN1C(=O)[C@H](CCCNC(=N)N)NC(=O)[C@@H](CCCNC(=N)N)NC(=O)[C@H](CCCNC(=N)N)NC(=O)[C@H](CCCNC(=N)N)NC(=O)[C@H](CCC(N)=O)NC(=O)[C@@H](CCCNC(=N)N)NC(=O)[C@H](CCCNC(=N)N)NC(=O)[C@H](CCCCN)NC(=O)[C@H](CCCCN)NC(=O)[C@H](N)CCCNC(=N)N)[C@@H](C)O)[C@@H](C)O)C(=O)N[C@H](Cc1ccccc1)C(N)=O [SEQ ID NO: 174, rKKRrQRRrRPTTLNLf] (H-[dR]KKR[dR]QRR[dR]RPTTLNL[dF]-NH2)	334	120	63.1	
CC(C)C[C@H](NC(=O)[C@H](CC(=O)O)NC(=O)[C@@H](NC(=O)[C@@H]1CCCN1C(=O)[C@H](CCCNC(=N)N)NC(=O)[C@@H](CCCCN)NC(=O)[C@@H]1CCCN1C(=O)[C@H](CCCNC(=N)N)NC(=O)[C@@H](CCCNC(=N)N)NC(=O)[C@H](CCCNC(=N)N)NC(=O)[C@H](CCCNC(=N)N)NC(=O)[C@H](CCC(N)=O)NC(=O)[C@@H](CCCNC(=N)N)NC(=O)[C@H](CCCNC(=N)N)NC(=O)[C@H](CCCCN)NC(=O)[C@H](CCCCN)NC(=O)[C@H](N)CCCNC(=N)N)[C@@H](C)O)C(=O)N[C@@H](CC(N)=O)C(=O)N[C@@H](CC(C)C)C(=O)N[C@H](Cc1ccccc1)C(N)=O [SEQ ID NO: 177, rKKRrQRRrRPkRPTDLNLf] (H-[dR]KKR[dR]QRR[dR]RP[dK]RPTDLNL[dF]-NH2)	355	87.2	45.4	
CC(C)C[C@H](NC(=O)[C@@H](NC(=O)[C@@H](NC(=O)[C@@H]1CCCN1C(=O)[C@H](CCCNC(=N)N)NC(=O)[C@@H](CCCNC(=N)N)NC(=O)[C@H](CCCNC(=N)N)NC(=O)[C@H](CCCNC(=N)N)NC(=O)[C@H](CCC(N)=O)NC(=O)[C@@H](CCCNC(=N)N)NC(=O)[C@H](CCCNC(=N)N)NC(=O)[C@H](CCCCN)NC(=O)[C@H](CCCCN)NC(=O)[C@H](N)CCCNC(=N)N)[C@@H](C)O)[C@@H](C)O)C(=O)N[C@H](CCCNC(=N)N)C(=O)N[C@@H](CC(C)C)C(=O)N[C@H](Cc1c[nH]c2ccccc12)C(N)=O [SEQ ID NO: 178, rKKRrQRRrRPTTLrLw] (H-[dR]KKR[dR]QRR[dR]RPTTL[dR]L[dW]-NH2)	329	109	30.4	
CC(C)C[C@H](NC(=O)[C@@H](NC(=O)[C@@H](NC(=O)[C@@H]1CCCN1C(=O)[C@H](CCCNC(=N)N)NC(=O)[C@@H](CCCNC(=N)N)NC(=O)[C@H](CCCNC(=N)N)NC(=O)[C@H](CCC(N)=O)NC(=O)[C@@H](CCCNC(=N)N)NC(=O)[C@H](CCCNC(=N)N)NC(=O)[C@H](CCCCN)NC(=O)[C@H](CCCCN)NC(=O)[C@H](N)CCCNC(=N)N)[C@@H](C)O)[C@@H](C)O)C(=O)N[C@H](CCCNC(=N)N)C(=O)N[C@@H](CC(C)C)C(=O)N[C@H](Cc1c[nH]c2ccccc12)C(N)=O [SEQ ID NO: 179, rKKRrQRrRPTTLrLw] (H-[dR]KKR[dR]QR[dR]RPTTL[dR]L[dW]-NH2)	249	122	45.7	
CC(C)C[C@H](NC(=O)[C@H](CC(=O)O)NC(=O)[C@@H](NC(=O)[C@@H]1CCCN1C(=O)[C@H](CCCNC(=N)N)NC(=O)[C@@H](CCCNC(=N)N)NC(=O)[C@H](CCCNC(=N)N)NC(=O)[C@H](CCCNC(=N)N)NC(=O)[C@H](CCC(N)=O)NC(=O)[C@@H](CCCNC(=N)N)NC(=O)[C@H](CCCNC(=N)N)NC(=O)[C@H](CCCCN)NC(=O)[C@H](CCCCN)NC(=O)[C@H](N)CCCNC(=N)N)[C@@H](C)O)C(=O)N[C@H](CCCNC(=N)N)C(=O)N[C@@H](CC(C)C)C(=O)N[C@H](Cc1c[nH]c2ccccc12)C(N)=O [SEQ ID NO: 180, rKKRrQRRrRPTDLrLw] (H-[dR]KKR[dR]QRR[dR]RPTDL[dR]L[dW]-NH2)	265	118	47	
C[C@H](NC(=O)[C@H](C)NC(=O)[C@@H](C)NC(=O)[C@H](C)NC(=O)[C@H](C)NC(=O)[C@@H](CCCCN)NC(=O)[C@@H]1CCCN1C(=O)[C@H](CCCNC(=N)N)NC(=O)[C@@H](CCCNC(=N)N)NC(=O)[C@H](CCCNC(=N)N)NC(=O)[C@H](CCCNC(=N)N)NC(=O)[C@H](CCC(N)=O)NC(=O)[C@@H](CCCNC(=N)N)NC(=O)[C@H](CCCNC(=N)N)NC(=O)[C@H](CCCCN)NC(=O)[C@H](CCCCN)NC(=O)[C@H](N)CCCNC(=N)N)C(=O)N[C@@H](CC(N)=O)C(=O)N[C@@H](C)C(=O)N[C@H](Cc1ccccc1)C(N)=O [compound 200, NH2 r K K R r Q R R r R P k A A a A A N A f CONH2] (H-[dR]KKR[dR]QRR[dR]RP[dK]AA[dA]AANA[dF]-NH2)				3320

More lines, in order of falling IC50 [1], values ahead:

IC50 [1] [nM]	IC50 ([2]; read-out: hJNK2 | IC50) [nM]	IC50 [3] [nM]	SMILES	IC50 [2] [nM]
185	82.3	60.6	CC(C)C[C@H](NC(=O)[C@H](CC(N)=O)NC(=O)[C@H](CC(C)C)NC(=O)[C@@H](NC(=O)[C@@H](NC(=O)[C@@H]1CCCN1C(=O)[C@H](CCCNC(=N)N)NC(=O)[C@@H](CCCNC(=N)N)NC(=O)[C@H](CCCNC(=N)N)NC(=O)[C@H](CCC(N)=O)NC(=O)[C@@H](CCCNC(=N)N)NC(=O)[C@H](CCCNC(=N)N)NC(=O)[C@H](CCCCN)NC(=O)[C@H](CCCCN)NC(=O)[C@H](N)CCCNC(=N)N)[C@@H](C)O)[C@@H](C)O)C(=O)N[C@H](Cc1ccccc1)C(N)=O [SEQ ID NO: 175, rKKRrQRrRPTTLNLf] (H-[dR]KKR[dR]QR[dR]RPTTLNL[dF]-NH2)	
131	40.3	22.4	CC(C)C[C@H](NC(=O)[C@H](CC(N)=O)NC(=O)[C@H](CC(C)C)NC(=O)[C@@H](NC(=O)[C@@H](NC(=O)[C@@H]1CCCN1C(=O)[C@H](CCCNC(=N)N)NC(=O)[C@@H](CCCCN)NC(=O)[C@@H]1CCCN1C(=O)[C@H](CCCNC(=N)N)NC(=O)[C@@H](CCCNC(=N)N)NC(=O)[C@H](CCCNC(=N)N)NC(=O)[C@H](CCCNC(=N)N)NC(=O)[C@H](CCC(N)=O)NC(=O)[C@@H](CCCNC(=N)N)NC(=O)[C@H](CCCNC(=N)N)NC(=O)[C@H](CCCCN)NC(=O)[C@H](CCCCN)NC(=O)[C@H](N)CCCNC(=N)N)[C@@H](C)O)[C@@H](C)O)C(=O)N[C@H](Cc1c[nH]c2ccccc12)C(N)=O [SEQ ID NO: 176, rKKRrQRRrRPkRPTTLNLw] (H-[dR]KKR[dR]QRR[dR]RP[dK]RPTTLNL[dW]-NH2)	
88.4	30	16.8	CC(C)C[C@H](NC(=O)[C@@H](NC(=O)[C@@H](NC(=O)[C@@H]1CCCN1C(=O)[C@H](CCCNC(=N)N)NC(=O)[C@@H](CCCCN)NC(=O)[C@@H]1CCCN1C(=O)[C@H](CCCNC(=N)N)NC(=O)[C@@H](CCCNC(=N)N)NC(=O)[C@H](CCCNC(=N)N)NC(=O)[C@H](CCCNC(=N)N)NC(=O)[C@H](CCC(N)=O)NC(=O)[C@@H](CCCNC(=N)N)NC(=O)[C@H](CCCNC(=N)N)NC(=O)[C@H](CCCCN)NC(=O)[C@H](CCCCN)NC(=O)[C@H](N)CCCNC(=N)N)[C@@H](C)O)[C@@H](C)O)C(=O)N[C@H](CCCNC(=N)N)C(=O)N[C@@H](CC(C)C)C(=O)N[C@H](Cc1ccccc1)C(N)=O [SEQ ID NO: 173, rKKRrQRRrRPkRPTTLrLf] (H-[dR]KKR[dR]QRR[dR]RP[dK]RPTTL[dR]L[dF]-NH2)	
